Source: ChEMBL document CHEMBL4219204, “Structure-based design and discovery of potent and selective KDM5 inhibitors” (Bioorg Med Chem Lett, 2018)

Experiments:
[1] = target: T1, Lysine-specific demethylase 4C (Homo sapiens, UniProt Q9H3R0); assay: Inhibition of KDM4C (unknown origin) preincubated with enzyme
T1 sequence (Q9H3R0 whole entry): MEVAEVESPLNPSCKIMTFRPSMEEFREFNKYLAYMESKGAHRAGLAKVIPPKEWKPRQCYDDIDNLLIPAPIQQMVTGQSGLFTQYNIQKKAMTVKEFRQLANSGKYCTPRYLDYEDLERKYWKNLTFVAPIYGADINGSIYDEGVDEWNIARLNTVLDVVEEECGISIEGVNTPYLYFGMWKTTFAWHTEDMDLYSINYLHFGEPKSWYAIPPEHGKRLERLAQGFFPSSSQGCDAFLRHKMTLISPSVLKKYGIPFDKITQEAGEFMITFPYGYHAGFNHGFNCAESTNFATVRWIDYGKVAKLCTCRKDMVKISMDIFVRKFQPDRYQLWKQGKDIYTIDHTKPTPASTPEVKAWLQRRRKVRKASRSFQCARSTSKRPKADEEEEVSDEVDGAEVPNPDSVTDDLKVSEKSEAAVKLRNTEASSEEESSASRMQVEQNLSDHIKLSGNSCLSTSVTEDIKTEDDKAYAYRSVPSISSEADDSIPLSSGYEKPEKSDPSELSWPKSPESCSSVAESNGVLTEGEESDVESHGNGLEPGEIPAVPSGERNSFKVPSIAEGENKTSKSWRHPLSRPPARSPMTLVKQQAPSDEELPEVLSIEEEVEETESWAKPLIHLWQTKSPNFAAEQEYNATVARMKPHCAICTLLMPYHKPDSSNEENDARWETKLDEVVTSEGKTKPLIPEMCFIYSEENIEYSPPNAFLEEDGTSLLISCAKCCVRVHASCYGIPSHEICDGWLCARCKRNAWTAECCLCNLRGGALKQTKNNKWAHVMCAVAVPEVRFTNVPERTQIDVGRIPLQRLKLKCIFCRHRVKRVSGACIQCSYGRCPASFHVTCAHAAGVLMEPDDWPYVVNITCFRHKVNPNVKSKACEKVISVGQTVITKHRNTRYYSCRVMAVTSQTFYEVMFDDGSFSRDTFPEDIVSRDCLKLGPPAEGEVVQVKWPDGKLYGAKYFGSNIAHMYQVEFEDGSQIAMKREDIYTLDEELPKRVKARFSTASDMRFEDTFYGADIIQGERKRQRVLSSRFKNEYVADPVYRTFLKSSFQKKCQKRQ

[2] = target: Lysine-specific demethylase 5A/5B (Homo sapiens, UniProt P29375+Q9UGL1); assay: Inhibition of KDM5A/KDM5B in human ZR-75-1 cells assessed as increase in H3K4me3 level after 72 hrs by fluorometric immunoassay; type: cell-based
[3] = target: T2, Lysine-specific demethylase 2B (Homo sapiens, UniProt Q8NHM5); assay: Inhibition of KDM2B (unknown origin)
T2 sequence (Q8NHM5 whole entry): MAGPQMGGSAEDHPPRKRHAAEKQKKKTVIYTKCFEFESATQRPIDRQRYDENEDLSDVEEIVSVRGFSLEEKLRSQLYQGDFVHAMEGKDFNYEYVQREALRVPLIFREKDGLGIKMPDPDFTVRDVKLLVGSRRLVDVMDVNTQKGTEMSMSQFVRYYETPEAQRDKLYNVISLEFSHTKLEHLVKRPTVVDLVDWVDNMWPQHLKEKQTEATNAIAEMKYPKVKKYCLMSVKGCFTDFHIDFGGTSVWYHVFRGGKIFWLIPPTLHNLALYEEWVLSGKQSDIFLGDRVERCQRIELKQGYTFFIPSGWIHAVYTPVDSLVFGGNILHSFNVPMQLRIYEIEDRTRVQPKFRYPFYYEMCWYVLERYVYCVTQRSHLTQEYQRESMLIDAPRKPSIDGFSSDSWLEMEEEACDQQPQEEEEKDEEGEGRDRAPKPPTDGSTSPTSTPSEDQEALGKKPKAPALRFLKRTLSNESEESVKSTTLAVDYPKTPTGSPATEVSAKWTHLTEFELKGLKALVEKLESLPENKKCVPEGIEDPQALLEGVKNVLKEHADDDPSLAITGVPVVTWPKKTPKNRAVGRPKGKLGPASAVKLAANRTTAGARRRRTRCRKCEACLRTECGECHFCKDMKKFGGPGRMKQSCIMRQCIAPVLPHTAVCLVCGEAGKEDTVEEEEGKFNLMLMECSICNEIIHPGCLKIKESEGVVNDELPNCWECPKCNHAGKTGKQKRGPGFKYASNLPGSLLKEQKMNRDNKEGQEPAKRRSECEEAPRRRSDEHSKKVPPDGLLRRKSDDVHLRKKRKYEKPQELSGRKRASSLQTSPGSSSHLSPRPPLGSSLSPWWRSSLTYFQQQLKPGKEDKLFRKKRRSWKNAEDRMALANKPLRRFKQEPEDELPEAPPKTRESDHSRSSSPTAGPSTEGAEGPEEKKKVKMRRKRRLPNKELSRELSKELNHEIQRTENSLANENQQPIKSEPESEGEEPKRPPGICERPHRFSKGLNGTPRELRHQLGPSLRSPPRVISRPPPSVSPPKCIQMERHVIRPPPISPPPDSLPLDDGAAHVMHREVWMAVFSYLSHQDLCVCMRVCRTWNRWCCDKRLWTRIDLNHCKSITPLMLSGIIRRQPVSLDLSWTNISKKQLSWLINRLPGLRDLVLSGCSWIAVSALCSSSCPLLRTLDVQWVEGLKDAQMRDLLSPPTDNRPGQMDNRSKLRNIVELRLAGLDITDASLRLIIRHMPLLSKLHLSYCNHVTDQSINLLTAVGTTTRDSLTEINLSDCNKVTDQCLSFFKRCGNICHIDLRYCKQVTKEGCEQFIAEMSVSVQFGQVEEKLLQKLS

[4] = target: T3, Lysine-specific demethylase 4E (Homo sapiens, UniProt B2RXH2); assay: Inhibition of KDM4E (unknown origin)
T3 sequence (B2RXH2 whole entry): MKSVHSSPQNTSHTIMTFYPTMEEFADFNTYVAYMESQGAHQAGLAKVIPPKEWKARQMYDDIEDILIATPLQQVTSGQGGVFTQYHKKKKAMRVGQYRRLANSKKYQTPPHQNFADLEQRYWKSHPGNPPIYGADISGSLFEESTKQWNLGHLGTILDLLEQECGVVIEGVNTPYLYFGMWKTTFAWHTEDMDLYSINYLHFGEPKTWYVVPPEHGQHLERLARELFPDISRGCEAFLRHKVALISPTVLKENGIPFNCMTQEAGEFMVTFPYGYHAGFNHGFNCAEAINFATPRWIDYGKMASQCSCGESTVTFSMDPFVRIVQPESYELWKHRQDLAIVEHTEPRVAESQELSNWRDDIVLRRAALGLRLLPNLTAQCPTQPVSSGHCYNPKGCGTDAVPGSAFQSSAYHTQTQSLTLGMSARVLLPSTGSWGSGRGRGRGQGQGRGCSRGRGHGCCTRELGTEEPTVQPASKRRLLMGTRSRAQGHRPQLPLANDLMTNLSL

[5] = Volume of distribution in CD-1 mouse at 5 mg/kg, iv; type: ADME, organism-based; conditions: in vivo
[6] = Inhibition of CYP450 (unknown origin); type: ADME; conditions: human
[7] = target: Voltage-gated inwardly rectifying potassium channel KCNH2 (Homo sapiens, UniProt Q12809); assay: Inhibition of human ERG
Sequence of Voltage-gated inwardly rectifying potassium channel KCNH2 (Q12809 whole entry): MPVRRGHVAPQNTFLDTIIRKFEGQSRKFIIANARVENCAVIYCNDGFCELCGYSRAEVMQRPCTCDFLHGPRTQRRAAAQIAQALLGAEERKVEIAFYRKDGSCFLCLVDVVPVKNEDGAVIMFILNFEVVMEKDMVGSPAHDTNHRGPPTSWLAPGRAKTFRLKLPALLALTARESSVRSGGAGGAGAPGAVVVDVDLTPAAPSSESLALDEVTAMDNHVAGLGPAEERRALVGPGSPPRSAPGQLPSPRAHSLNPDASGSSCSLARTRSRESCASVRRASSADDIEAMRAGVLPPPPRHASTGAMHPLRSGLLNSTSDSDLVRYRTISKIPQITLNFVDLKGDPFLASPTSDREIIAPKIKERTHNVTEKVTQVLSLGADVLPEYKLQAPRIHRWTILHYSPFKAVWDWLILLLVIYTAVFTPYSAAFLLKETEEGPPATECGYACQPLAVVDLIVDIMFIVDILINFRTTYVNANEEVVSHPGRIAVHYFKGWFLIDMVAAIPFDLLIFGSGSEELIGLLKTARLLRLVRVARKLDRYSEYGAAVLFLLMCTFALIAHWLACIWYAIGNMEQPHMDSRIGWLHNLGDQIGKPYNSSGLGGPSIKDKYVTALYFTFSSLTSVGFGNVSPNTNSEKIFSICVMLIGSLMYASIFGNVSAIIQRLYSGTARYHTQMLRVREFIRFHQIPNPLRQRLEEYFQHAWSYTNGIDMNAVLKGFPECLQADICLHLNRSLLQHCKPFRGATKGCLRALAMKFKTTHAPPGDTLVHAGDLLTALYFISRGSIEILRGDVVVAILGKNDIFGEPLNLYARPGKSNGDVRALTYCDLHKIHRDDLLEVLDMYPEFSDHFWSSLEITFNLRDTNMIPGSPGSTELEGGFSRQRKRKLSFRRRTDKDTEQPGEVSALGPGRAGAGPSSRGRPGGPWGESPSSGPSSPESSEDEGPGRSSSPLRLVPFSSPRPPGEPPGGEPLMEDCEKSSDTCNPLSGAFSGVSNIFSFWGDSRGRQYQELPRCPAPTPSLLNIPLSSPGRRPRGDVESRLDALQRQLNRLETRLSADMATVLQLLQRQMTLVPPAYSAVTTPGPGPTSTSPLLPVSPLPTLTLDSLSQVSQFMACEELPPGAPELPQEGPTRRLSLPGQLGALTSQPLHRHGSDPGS

IC50 [1]: 35 to 41 nM
EC50 [2]: 90 nM
IC50 [3]: 630 nM
IC50 [4]: 160 nM
Vd [5]: 0.16 L/kg
inhibition (INH) [6]: Not Active
SMILES: Cc1cc(Cl)ccc1COc1ccnn1-c1cc(C(=O)O)ccn1
inhibition (INH) [7]: Not Active
